Results reported in patent US6362181B1, “Isoquinolones” (Warner-Lambert Company, priority 1996, dated 2002).
Converted amounts (≈) assume the structure as drawn. Like-named read-outs stand apart in the source and are kept apart here.

Legend:
relaxed plasmid pBR322 = assay: DNA intercalation/binding assay; settings: pBR322 with calf thymus topoisomerase I, 30 minutes at 37° C.; read-out: Drug Concentration causing 50% Intercalation of DNA
Method: Compounds of the present invention were evaluated for their ability to intercalate/bind to DNA, using the procedure described in Nucleic Acids Research, 1987;15(15):6713. Specifically, 0.2 μg of relaxed plasmid pBR322 (Lucent, Ltd., Leicester, UK) was treated with 2 U of calf thymus topoisomerase I (Gibco/BRL, Gaithersburg, Md.) in buffer I (10 mM Tris-HCl (Ph 7.5), 50 mM KCl, 5 mM MgCl2, 1 mM Na2EDTA, 15 μg/mL bovine serum albumin) in the presence or absence of test compounds. Reaction were incubated for 30 minutes at 37° C.; volumes were typically 30 μL. Reactions were terminated by the addition of sodium dodecylsulfate (SDS) to 1% and proteinase K to 0.5 mg/mL final concentrations. After an additional 30 minutes at 37° C., one-tenth volume of 10×concentrated loading buffer (0.3% bromophenol blue, 16% Ficoll, 10 mM Na2HPO4) was added, and samples were loaded onto horizontal 0.8% agarose gels prepared in TAE buffer. Electrophoresis was at 22 V for 14 hours. Gels were then stained by soaking for 1.5 hours in deionized water containing 0.2 μg/mL of ethidium bromide, followed by destaining in deionized water for an additional 1.5 hours. Gels were examined and photographed following exposure to UV light. The concentration of the drug which induced a 50% change in the DNA by intercalation is represented by an intercalation IC50 and is recorded in Table 4.

S. aureus 29213 = assay: Antibacterial assay, standard microtitration, MIC; assay type: cell-based; settings: Staphylococcus aureus, Gram positive, read-out: Minimum Inhibitory Concentrations, S. aureus 29213
Method: (§1) The compounds of the present invention were tested against an assortment of gram negative and gram positive organisms using standard microtitration techniques (Cohen, et al., Antimicrob. Agents Chemother., 1985;28:766; Heifetz, et al. Antimicrob. Agents Chemother., 1974;6:124).

E. coli B90 = assay: Antibacterial assay, standard microtitration, MIC; assay type: cell-based; settings: Escherichia coli, Gram negative, read-out: Minimum Inhibitory Concentrations, E. coli B90
Method: as §1

B. subtilis RB1 = assay: Antibacterial assay, standard microtitration, MIC; assay type: cell-based; settings: Bacillus subtilis, Gram positive, read-out: Minimum Inhibitory Concentrations, B. subtilis RB1
Method: as §1

E. coli MC4100 = assay: Antibacterial assay, standard microtitration, MIC; assay type: cell-based; settings: Escherichia coli, Gram negative, read-out: Minimum Inhibitory Concentrations, E. coli MC4100
Method: as §1

S. pyogenes C203 = assay: Antibacterial assay, standard microtitration, MIC; assay type: cell-based; settings: Streptococcus pyogenes, Gram positive, read-out: Minimum Inhibitory Concentrations, S. pyogenes C203
Method: as §1

E. coli To1C = assay: Antibacterial assay, standard microtitration, MIC; assay type: cell-based; settings: Escherichia coli, TO1C, read-out: Minimum Inhibitory Concentrations, E. coli To1C
Method: as §1

E. coli gyrase = target: T1, E. coli gyrase (Escherichia coli, UniProt P0AES4+P0AES6); assay: DNA gyrase supercoiling inhibition assay; assay type: biochemical
T1 construct: purchased Lucent, Ltd., Leicester, UK
T1 sequence (P0AES4 whole entry, one chain of several): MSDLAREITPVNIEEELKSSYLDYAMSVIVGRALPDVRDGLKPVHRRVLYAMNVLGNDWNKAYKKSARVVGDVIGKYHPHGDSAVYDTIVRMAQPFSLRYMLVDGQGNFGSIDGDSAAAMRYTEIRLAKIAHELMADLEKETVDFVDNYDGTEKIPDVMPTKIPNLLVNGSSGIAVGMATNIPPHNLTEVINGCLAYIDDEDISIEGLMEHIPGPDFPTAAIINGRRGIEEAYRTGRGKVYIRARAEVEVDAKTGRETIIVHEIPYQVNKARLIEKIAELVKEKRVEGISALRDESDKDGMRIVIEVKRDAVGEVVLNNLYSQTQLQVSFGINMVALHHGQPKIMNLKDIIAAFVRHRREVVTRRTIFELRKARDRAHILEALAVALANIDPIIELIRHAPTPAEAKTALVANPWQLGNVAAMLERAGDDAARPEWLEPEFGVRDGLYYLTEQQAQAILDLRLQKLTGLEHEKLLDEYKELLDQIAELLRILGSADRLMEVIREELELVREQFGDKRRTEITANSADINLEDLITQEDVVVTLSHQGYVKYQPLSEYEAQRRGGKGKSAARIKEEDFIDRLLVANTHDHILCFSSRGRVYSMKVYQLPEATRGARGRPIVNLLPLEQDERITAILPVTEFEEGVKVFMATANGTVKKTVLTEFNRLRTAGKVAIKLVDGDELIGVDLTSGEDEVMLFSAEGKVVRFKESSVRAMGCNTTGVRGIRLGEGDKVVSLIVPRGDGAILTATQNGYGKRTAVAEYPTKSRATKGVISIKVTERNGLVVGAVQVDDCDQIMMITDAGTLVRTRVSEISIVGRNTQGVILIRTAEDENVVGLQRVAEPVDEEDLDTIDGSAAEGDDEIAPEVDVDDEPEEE
Method: The effects of test agents on the activity of DNA gyrase was determined by the supercoiling inhibition assay, following reaction conditions recommended by the enzyme supplier (Lucent, Ltd., Leicester, UK), as follows. Reactions were performed in buffer G (35 mM Tris-HCL (pH 7.5), 24 mM KCl, 4 mM MgCl2, 2 mM DTT, 1.8 mM spermidine, 1 mM ATP, 0.1 mg/mL bovine serum albumin). 0.25 μg of relaxed plasmid pBR322 (Lucent, Ltd., Leicester, UK) was reacted with 1 U E. coli gyrase (Lucent, Ltd., Leicester, UK), in the absence or presence of drugs, for 30 minutes at 37° C. Reactions were stopped by the addition of SDS and proteinase K to respective final concentrations of 1% and 0.5 mg/mL. After an additional 30 minutes at 37° C., one-tenth volume of 10×loading buffer (0.3% bromophenol blue, 16% Ficoll, 10 mM Na2HPO4) was added, and reactions were loaded onto agarose gels and electrophoresed as described above for intercalation assays. The concentration of drug inhibiting 50% of the supercoiling activity of DNA gyrase is given as an IC50 and recorded in Table 2.

[1] = supercoiling of relaxed pBR322, 30 minutes at 37° C., read-out: DNA Gyrase IC50

Structure (SMILES) | IC50 (relaxed plasmid pBR322) | MIC (S. aureus 29213) | MIC (E. coli B90) | MIC (B. subtilis RB1) | MIC (E. coli MC4100) | MIC (S. pyogenes C203) | MIC (E. coli To1C) | IC50 (E. coli gyrase; [1]) | melting point | IC50 (E. coli gyrase)
CN(C)CCN1C(=O)c2cccc3cc(N)cc(c23)C1=O [Amonafide, amonafide, reference compound] | < 10 µM | 128 µg/mL (≈ 452 µM) | 16 µg/mL (≈ 56.5 µM) | 64 µg/mL (≈ 226 µM) | 64 µg/mL (≈ 226 µM) | 4 µg/mL (≈ 14.1 µM) |  |  |  | 
O=C1c2cccc3cc([N+](=O)[O-])cc(c23)C(=O)N1O [Example 1, 2-Hydroxy-5-nitro-benzo[de]isoquinoline-1,3-dione] | > 100 µM | 8 µg/mL (≈ 31 µM) | 2 µg/mL (≈ 7.75 µM) | 8 µg/mL (≈ 31 µM) | 4 µg/mL (≈ 15.5 µM) | 32 µg/mL (≈ 124 µM) |  |  |  | 
O=C1c2cccc3c([N+](=O)[O-])ccc(c23)C(=O)N1O [Example 2, 2-Hydroxy-6-nitro-benzo[de]isoquinoline-1,3-dione] | > 100 µM | 2 µg/mL (≈ 7.75 µM) | 4 µg/mL (≈ 15.5 µM) | 4 µg/mL (≈ 15.5 µM) | 8 µg/mL (≈ 31 µM) | 4 µg/mL (≈ 15.5 µM) |  |  |  | 
Nc1ccc2c3c(cccc13)C(=O)N(O)C2=O [Example 7, 6-Amino-2-hydroxy-benzo[de]isoquinoline-1,3-dione] | > 100 µM | 8 µg/mL (≈ 35.1 µM) | 4 µg/mL (≈ 17.5 µM) | 16 µg/mL (≈ 70.1 µM) | 4 µg/mL (≈ 17.5 µM) | > 64 µg/mL | 4 µg/mL (≈ 17.5 µM) |  |  | 
O=C1c2cccc3cc(F)cc(c23)C(=O)N1O [Example 11, 5-Fluoro-2-hydroxy-benzo[de]isoquinoline-1,3-dione] | > 100 µM | 64 µg/mL (≈ 277 µM) | 2 µg/mL (≈ 8.65 µM) | 8 µg/mL (≈ 34.6 µM) | 8 µg/mL (≈ 34.6 µM) | > 64 µg/mL |  |  |  | 
COc1cc2c3c(cccc3c1N)C(=O)N(O)C2=O [Example 30, 6-Amino-2-hydroxy-5-methoxy-benzo[de]isoquinoline-1,3-dione] | > 100 µM | 4 µg/mL (≈ 15.5 µM) | 4 µg/mL (≈ 15.5 µM) | 4 µg/mL (≈ 15.5 µM) | 8 µg/mL (≈ 31 µM) | 64 µg/mL (≈ 248 µM) | 2 µg/mL (≈ 7.74 µM) |  |  | 
O=C1c2ccc(N3CCCC3)c3cc(Br)cc(c23)C(=O)N1O [Example 59, 5-Bromo-2-hydroxy-7-(pyrrolidin-1-yl)-benzo[de]isoquinoline-1,3-dione] | > 100 µM | 1 µg/mL (≈ 2.77 µM) | 0.06 µg/mL (≈ 0.166 µM) | 0.5 µg/mL (≈ 1.38 µM) | 2 µg/mL (≈ 5.54 µM) | > 64 µg/mL | 0.06 µg/mL (≈ 0.166 µM) | 2.6 µM |  | 
Nc1cc2c3c(cccc3c1N1CCCCC1)C(=O)N(O)C2=O [Example 71] |  | 2 µg/mL (≈ 6.42 µM) | 4 µg/mL (≈ 12.8 µM) | 2 µg/mL (≈ 6.42 µM) | > 64 µg/mL | 16 µg/mL (≈ 51.4 µM) | 4 µg/mL (≈ 12.8 µM) |  | 244 to 248 °C | 
O=C1c2cccc3c(N4CCCCC4)c([N+](=O)[O-])cc(c23)C(=O)N1O [Example 77] |  |  |  |  |  |  |  |  | 252 to 254 °C | 
O=C1c2cccc3c([SH]4CCNCC4)c([N+](=O)[O-])cc(c23)C(=O)N1O [Example 78] |  |  |  |  |  |  |  |  | 280 to 283 °C | 
CN1CCN(c2c([N+](=O)[O-])cc3c4c(cccc24)C(=O)N(O)C3=O)CC1 [Example 80] |  |  |  |  |  |  |  |  | 320 to 322 °C | 
O=C1c2cccc3c(N4CCOCC4)c([N+](=O)[O-])cc(c23)C(=O)N1O [Example 81] | 94 µM | 32 µg/mL (≈ 93.2 µM) | 8 µg/mL (≈ 23.3 µM) | 8 µg/mL (≈ 23.3 µM) | > 64 µg/mL | > 64 µg/mL | 8 µg/mL (≈ 23.3 µM) |  | 272 to 274 °C | 19 µM
NC1CCN(c2c([N+](=O)[O-])cc3c4c(cccc24)C(=O)N(O)C3=O)C1 (stereo not drawn) [Example 82] |  |  |  |  |  |  |  |  | 259 to 263 °C | 
O=C1c2cccc3c(N4CC[C@H](O)C4)c(Cl)cc(c23)C(=O)N1O [Example 84] |  |  |  |  |  |  |  |  | 197 to 201 °C | 
NCC1CCN(c2c(Cl)cc3c4c(cccc24)C(=O)N(O)C3=O)C1 (stereo not drawn) [Example 85] |  | 4 µg/mL (≈ 11.6 µM) | 0.5 µg/mL (≈ 1.45 µM) | 1 µg/mL (≈ 2.89 µM) | 1 µg/mL (≈ 2.89 µM) | 4 µg/mL (≈ 11.6 µM) | 0.25 µg/mL (≈ 0.723 µM) |  |  | 2.1 µM
CC1(CN)CCN(c2c(Cl)cc3c4c(cccc24)C(=O)N(O)C3=O)C1 (stereo not drawn) [Example 89] |  | 1 µg/mL (≈ 2.78 µM) | 1 µg/mL (≈ 2.78 µM) | 1 µg/mL (≈ 2.78 µM) | 4 µg/mL (≈ 11.1 µM) | 2 µg/mL (≈ 5.56 µM) | 0.5 µg/mL (≈ 1.39 µM) |  |  | 5.5 µM
O=C1c2cccc3c(N4CCCCC4)c(Cl)cc(c23)C(=O)N1O [Example 94] |  |  |  |  |  |  |  |  | 228 to 229 °C | 
O=C1c2cccc3c([SH]4CCNCC4)c(Cl)cc(c23)C(=O)N1O [Example 95] |  |  |  |  |  |  |  |  | 240 to 242 °C | 
CCCCNC(=O)Nc1cc2c3c(cccc3c1)C(=O)N(O)C2=O [Example 100] |  |  |  |  |  |  |  |  | > 250 °C | 
CNC(=O)Nc1cc2c3c(cccc3c1)C(=O)N(O)C2=O [Example 101] |  |  |  |  |  |  |  |  | > 250 °C | 
CCCNC(=O)Nc1cc2c3c(cccc3c1)C(=O)N(O)C2=O [Example 102] |  | > 64 µg/mL | 32 µg/mL (≈ 102 µM) | 16 µg/mL (≈ 51.1 µM) | > 64 µg/mL | > 64 µg/mL | 16 µg/mL (≈ 51.1 µM) |  | > 250 °C | 
O=C1c2cccc3c4c(cc(c23)C(=O)N1O)OCO4 [Example 122, 2-Hydroxy-5,6-methylenedioxy-benzo[de]isoquinoline-1,3-dione] | > 100 µM | 8 µg/mL (≈ 31.1 µM) | 0.5 µg/mL (≈ 1.94 µM) | 2 µg/mL (≈ 7.78 µM) | 2 µg/mL (≈ 7.78 µM) | > 64 µg/mL | 0.5 µg/mL (≈ 1.94 µM) | 19 µM |  | 
CN1COc2cc3c4c(cccc4c2C1)C(=O)N(O)C3=O [Example 127] |  |  |  |  |  |  |  |  | 247 to 249 °C | 
CCCCCN1COc2cc3c4c(cccc4c2C1)C(=O)N(O)C3=O [Example 129] |  |  |  |  |  |  |  |  | 194 to 196 °C | 
